The record followed here is article PMC9135634 (Nature chemical biology, 2022).

In one data set the target is KRAS WT (Homo sapiens, UniProt P01116). Briefly: RAS BRET target engagement assay. In kind it is cell-based. The note with it: across all RAS variants studied. (BRET reads energy transfer from a luciferase to a nearby fluorophore.)
For the next data set, the target named is KRAS(D54R) : CRAF(RBD) (Homo sapiens, UniProt P01116, D54R). Briefly: NanoBiT-KRAS:CRAF. In kind it is cell-based.
In another data set the target is NanoBiT-KRAS WT (Homo sapiens, UniProt P01116). Nature of the data set: NanoBiT-RAS luminescence. The note with it: live cells; titration. It counts as cell-based.
A further data set has as its target NanoLuc-ABL1 (Homo sapiens, UniProt P00519). Briefly: NanoBRET TE Intracellular Kinase Assay, K-4. In kind it is cell-based.
The next data set concerns the target HRAS(G12C) (Homo sapiens, UniProt P01112, G12C). Briefly: RAS BRET target engagement assay, live HEK-293 cells.
For a further data set, the target named is HRAS WT (Homo sapiens, UniProt P01112). Described as above. In kind it is cell-based.
A further data set concerns HEK-293 cells. In kind it is cell-based. The note with it: RAS-independent cell line.
The subject of a further data set is A375 cells. Briefly: Anti-proliferative activity, CellTiter-Glo 2.0. It counts as cell-based. The note with it: BRAF V600E, RAS-independent. (ATP-based viability assays read luminescence as a measure of living cells.)
In a further data set the target is KRAS(G12C) (Homo sapiens, UniProt P01116, G12C). Nature of the data set: RAS BRET target engagement assay, live HEK-293 cells. It counts as cell-based. The conditions noted are these: BRET competition.
The target of another data set is KRAS(Y96D) (Homo sapiens, UniProt P01116, Y96D). The data set is described as above. It counts as cell-based.

NanoLuc-ABL1, sequence (P00519 whole entry): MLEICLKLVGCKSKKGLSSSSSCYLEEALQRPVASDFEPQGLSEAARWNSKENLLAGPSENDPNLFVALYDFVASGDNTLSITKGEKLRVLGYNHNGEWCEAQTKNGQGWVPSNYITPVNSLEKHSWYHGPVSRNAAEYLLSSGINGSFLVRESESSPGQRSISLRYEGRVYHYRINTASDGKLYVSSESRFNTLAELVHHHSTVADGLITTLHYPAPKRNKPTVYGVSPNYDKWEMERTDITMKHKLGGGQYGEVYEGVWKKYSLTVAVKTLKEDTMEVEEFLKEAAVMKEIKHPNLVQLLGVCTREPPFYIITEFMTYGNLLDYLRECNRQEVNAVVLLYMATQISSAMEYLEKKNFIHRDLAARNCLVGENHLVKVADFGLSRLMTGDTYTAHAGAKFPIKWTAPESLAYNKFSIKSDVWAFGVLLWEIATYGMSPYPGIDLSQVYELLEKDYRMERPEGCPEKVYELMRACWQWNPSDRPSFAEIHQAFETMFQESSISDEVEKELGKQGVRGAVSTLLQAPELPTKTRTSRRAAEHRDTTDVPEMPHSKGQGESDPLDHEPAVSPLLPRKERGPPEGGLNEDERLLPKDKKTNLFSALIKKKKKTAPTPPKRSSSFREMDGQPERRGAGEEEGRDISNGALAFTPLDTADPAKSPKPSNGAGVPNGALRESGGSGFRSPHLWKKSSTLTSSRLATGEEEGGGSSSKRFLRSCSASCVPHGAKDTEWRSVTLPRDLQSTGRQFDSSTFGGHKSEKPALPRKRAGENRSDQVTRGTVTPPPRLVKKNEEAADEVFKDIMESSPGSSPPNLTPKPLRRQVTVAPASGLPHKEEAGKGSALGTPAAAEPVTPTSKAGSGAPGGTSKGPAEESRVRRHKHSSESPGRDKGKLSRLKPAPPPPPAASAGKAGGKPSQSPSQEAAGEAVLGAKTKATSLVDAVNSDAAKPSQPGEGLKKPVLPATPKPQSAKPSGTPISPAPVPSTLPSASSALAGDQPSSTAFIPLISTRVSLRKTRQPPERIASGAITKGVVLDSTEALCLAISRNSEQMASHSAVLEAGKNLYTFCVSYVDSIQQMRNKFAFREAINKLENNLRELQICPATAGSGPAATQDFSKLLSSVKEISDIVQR

In the case of `Cn1cnc(Cn2ccc3ccc(CNCc4[nH]c5ccccc5c4[C@H]4NC(=O)c5ccc(O)cc54)cc32)c1` [BI-2852], on KRAS WT, the “Hill coefficients, mean” value is recorded as 1.9 ± 0.7 and the “Hill coefficients, range” value is 1.3−3.3. In addition, the “inhibition of CRAF-RBD interaction with KRAS(D54R) dimers” value against KRAS(D54R) : CRAF(RBD) is “unable to inhibit the interaction”. Besides, the “effect on RAS dimerization NanoBiT signal” value on NanoBiT-KRAS WT was “did not impact”. On NanoLuc-ABL1, the “effect on BRET or luminescence in irrelevant target engagement assay” value is “had no effect on the BRET or luminescence”.

`C=C(F)C(=O)N1CCN(c2nc(OC[C@@H]3CCCN3C)nc3c2CCN(c2cccc4cccc(Cl)c24)C3)C[C@@H]1CC#N` [MRTX849]: at HRAS(G12C), the “BRET engagement” value is “showed vulnerability” and the “affinity for HRAS(G12C) weaker than that observed for KRAS(G12C)” value is listed as 3 orders of magnitude. Moreover, at HRAS WT, the “BRET engagement” value is given as “No engagement”. For the same compound, the “anti-proliferative / cytotoxic effect” value in the data set on HEK-293 cells is listed as “the same effect”. The “anti-proliferative effect” value with A375 cells is “the same effect”.

In the case of `C=CC(=O)N1CCN(c2nc(=O)n(-c3c(C)ccnc3C(C)C)c3nc(-c4c(O)cccc4F)c(F)cc23)[C@@H](C)C1` [AMG510, sotorasib], the “BRET engagement” value at HRAS(G12C) was “showed vulnerability”; at HRAS WT, “No engagement”.

On KRAS(G12C), `C=CC(=O)N1CCN(c2ncnc3c(F)c(-c4c(O)cccc4F)c(Cl)cc23)CC1` [ARS-1620] displayed a hill coefficient of 1.1.

In the case of `CCC(=O)N1CCN(c2nc(OC[C@@H]3CCCN3C)nc3c2CCN(c2cccc4cccc(Cl)c24)C3)C[C@@H]1CC#N` [Compound 10], at KRAS(Y96D), the “BRET engagement” value is “not observed”.
